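Step 1: Grow cells in 96-well plates. Step 2: Expose to compound for 48 hours at 5 concentrations. Step 3: Interpolate endpoints linearly; if unreached, use highest concentration. TGI: concentration producing complete growth inhibition.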
Key:
Experiment in all cases: DTP human tumour cell line panel, 48 h
[1] = tested on: NCI-H460 lung
[2] = tested on: SK-OV-3 ovarian
[3] = tested on: SF-539 CNS
[4] = tested on: SNB-19 CNS
[5] = tested on: OVCAR-3 ovarian
[6] = tested on: HL-60(TB) leukemia
[7] = tested on: HT29 colon
[8] = tested on: NCI-H226 lung
[9] = tested on: MDA-MB-435
[10] = tested on: TK-10 renal

Row | Compound | TGI [1] | TGI [2] | TGI [3] | TGI [4] | TGI [5] | TGI [6] | TGI [7] | TGI [8] | TGI [9] | TGI [10]
1 | Cn1c(SCc2ccc(F)cc2)nnc1C12CC3CC(CC(C3)C1)C2 | > 100 µM | > 100 µM | 65.1 µM | > 100 µM | 85.5 µM | 28.6 µM | 39.2 µM | > 100 µM | 61.7 µM | –
2 | COc1ccc(-c2nc(SCC(=O)NNC(=S)Nc3ccccc3)[nH]c2-c2ccc(OC)cc2)cc1 | 32.2 µM | > 100 µM | 30.9 µM | 43.2 µM | 34.5 µM | 29.9 µM | > 100 µM | – | 46.7 µM | > 100 µM
3 | NS(=O)(=O)c1ccc(NC(=S)/N=C/C2=C(O)c3ccccc3C2=O)cc1 | > 100 µM | > 100 µM | > 100 µM | > 100 µM | > 100 µM | > 100 µM | – | – | > 100 µM | > 100 µM
4 | O=C1OC(C2Cc3ccc4ccccc4c3C2=O)c2ccccc21 (configuration not stated) | > 100 µM | – | 56.5 µM | 92.6 µM | 98.1 µM | > 100 µM | – | 49.7 µM | > 100 µM | > 100 µM
5 | O=P(O)(O)C(N=C(Nc1ccccc1)Nc1ccccc1)P(=O)(O)O | > 100 µM | > 100 µM | > 100 µM | > 100 µM | > 100 µM | – | > 100 µM | > 100 µM | – | > 100 µM
6 | CSc1cc(-c2cccs2)sc1-c1cc(SC)c(-c2sc(-c3sc(-c4cccs4)cc3SC)cc2SC)s1 | > 100 µM | > 100 µM | > 100 µM | > 100 µM | > 100 µM | > 100 µM | > 100 µM | – | > 100 µM | > 100 µM
7 | CCCNc1ncnc2c1ncn2C | – | > 100 µM | > 100 µM | > 100 µM | > 100 µM | 96.3 µM | – | > 100 µM | > 100 µM | > 100 µM
8 | O=c1oc2cc(O)ccc2c(O)c1C(c1ccccc1)c1c(O)c2ccc(O)cc2oc1=O | > 100 µM | > 100 µM | > 100 µM | – | > 100 µM | > 100 µM | > 100 µM | > 100 µM | > 100 µM | > 100 µM
9 | CCCCCCCCCCCCCCCCNc1cccc2ccccc12 | > 100 µM | > 100 µM | > 100 µM | > 100 µM | > 100 µM | > 100 µM | – | > 100 µM | – | > 100 µM
10 | CC(C)(C)[Si](C)(C)OCC1OC(n2ccc(=O)[nH]c2=O)C(O[Si](C)(C)C(C)(C)C)/C1=C/C#N (configuration not stated) | > 100 µM | > 100 µM | > 64 µM | > 100 µM | > 100 µM | – | > 47.7 µM | > 75.8 µM | > 38.7 µM | > 44 µM
11 | COc1ccc(C2c3cn[nH]c3CC3CCCCC32)cc1 (configuration not stated) | 30.8 µM | – | – | 43.5 µM | 28.9 µM | 61.2 µM | 41.4 µM | 36.9 µM | 40.4 µM | 37.1 µM
12 | O=C(CCn1ccnc1[N+](=O)[O-])NCCCn1ccnc1[N+](=O)[O-] | > 100 µM | > 100 µM | > 100 µM | – | > 100 µM | > 100 µM | > 100 µM | > 100 µM | > 100 µM | > 100 µM

From PubChem BioAssay (NCI)
